Each structure is given as a SMILES string. “And” between values parts separate entries of the source, which are not always exact repeats. Identical values can stand only once. Like-named read-outs stand apart in the source and are kept apart here.

For data set [1], the system named is CYP19A1. The arrangement: method as in PMID 9152599. Conditions: cited from earlier work.
Data set [2] concerns the target T1, CYP19A1 (Homo sapiens, UniProt P11511).
T1 sequence (P11511 1-503): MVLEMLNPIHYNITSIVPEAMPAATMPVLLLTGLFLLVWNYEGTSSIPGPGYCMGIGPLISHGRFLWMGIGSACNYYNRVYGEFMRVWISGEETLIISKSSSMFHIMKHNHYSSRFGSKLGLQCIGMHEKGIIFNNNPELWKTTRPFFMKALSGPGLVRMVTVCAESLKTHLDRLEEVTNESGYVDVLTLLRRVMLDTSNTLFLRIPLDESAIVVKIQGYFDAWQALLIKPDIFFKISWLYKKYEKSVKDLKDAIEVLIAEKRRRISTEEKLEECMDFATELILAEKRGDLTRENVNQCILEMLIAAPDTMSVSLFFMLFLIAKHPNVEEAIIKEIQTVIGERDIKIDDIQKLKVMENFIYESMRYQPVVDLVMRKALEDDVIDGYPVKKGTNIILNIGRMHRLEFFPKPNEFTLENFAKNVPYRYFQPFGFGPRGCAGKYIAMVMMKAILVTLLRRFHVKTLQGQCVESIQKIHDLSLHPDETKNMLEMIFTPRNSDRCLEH
Nature of the data set: In cell activity assay for CYP19A1 (dibenzylfluorescein conversion, HEK293 T-Rex cells). The settings on record: concentrations up to 30 μM, in the dark and following irradiation to form 7. In kind it is cell-based. Here is the method:
Thus, the activity against CYP19A1 was evaluated using a recently developed in-cell fluorometric assay.
REE or DBF was added as described above.

Another data set concerns HEK293 T-Rex cell line. Description: Cellular viability (resazurin to resorufin, 72 h). It counts as cell-based, human. Conditions: Supplementary Fig. 24d. As for the experimental part:
The cells were >70% viable at 72 h with 10 μM compound, as quantified by metabolically active cells determined by the conversion of resazurin to resorufin (Supplementary Figs. 18–20).
The parental HEK T-Rex cell line was maintained as above, in the absence of Zeocin. Compounds were serially diluted in media, and the cells were dosed from 0–30 μM compound, and then incubated at 37 °C (n = 3). […] The cells were incubated with the compound in the dark for 30 min prior to light exposure, using the same parameters as in the enzyme activity assay, and then treated as above.
On the technique in general: Resazurin is reduced to fluorescent resorufin, in cell work by metabolically active cells.

The nature of data set [3]: Stability of complexes at 37 °C in the dark (HPLC, UV/Vis). It counts as physicochemical. As for the experimental part:
The stability of each complex was assessed over 24 h under aqueous conditions at 37 °C (Supplementary Figs. 12–15). […] Given the potency of the caged inhibitor, thermal stability is of critical importance, making complex 6 the preferred photocaged candidate.
Opti-MEM with 2% fetal bovine serum (right) at 37 °C in the dark over the course of 0 (blue line) to 24 h (black dashed line). Compounds were tested in triplicate (n = 3), the data for one replicate are presented. Complexes 4 and 5 slowly degraded in the experiment condition (see HPLC traces, Figures S13–14). The decrease in absorbance for complex 6 is explained by the slow aggregation of the compound in the 96-well plate.
(1 picture or pasted object on this page, not shown here)
Supplementary Figure 13. a HPLC chromatogram analysis of stability of 4 (50 µM in di-H2O) before (black dashed line, purity > 92 % ) and after incubation at 37 °C for 24 hours (red line). At 24 hours, 43 % of 4 was […]
Supplementary Figure 14. HPLC chromatogram analysis of stability of 5 (50 µM in di-H2O) before (black dashed line, purity > 97 %) and after incubation at 37 °C for 24 hours (red line). At 24 hours, 50 % of 5 was observed […]
Supplementary Figure 15. HPLC chromatogram analysis of stability of 6 (40 µM in di-H O : MeCN mixture (4:1), […]
MeCN was added to reduce the aggregation) before (black dashed line, purity > 99.5 %) and after incubation at 37 °C for 24 hours. At 24 hours, less than 2 % degradation was observed (calculated by area, detection wavelength = […]
Supplementary Figure 16. HPLC chromatogram analysis of stability of 6 (40 µM) in 5 % DMSO / di-H2O with a 100 μM GSH, b 100 μM imidazole and c acidic condition (pH = 1) after incubation at 37 °C for 72 hours. Less than […]
detection wavelength = 280 nm). […]
imidazole and c acidic condition (pH = 1) after incubation at 37 °C for 72 hours. d At 72 hours less than 7 % degradation was observed by HPLC at pH = 1 (calculated by area, detection wavelength = 280 nm). Compounds were tested in triplicate (n = 3), the data for one replicate are presented.

A short description of data set [4]: Irradiation-induced 1O2 production (Singlet Oxygen Sensor Green assay). It counts as physicochemical. The settings on record: sheet S27; triplicate columns; DMSO control about 0.9. From the text: Some Ru(II) complexes can generate singlet oxygen when photoexcited, a feature that has been applied to the selective photoinactivation of proteins. In this approach, the Ru(II) system is conjugated to a peptide that is a specific ligand for the protein target; binding of the peptide to the protein ensures close proximity of the Ru(II) center and thus, upon photoexcitation, the generation of a high local concentration of singlet oxygen. […] As very little of this reactive oxygen species was generated, inactivation of the CYP enzymes by this process appears unlikely.
Supplementary Figure 27. Determination of irradiation-induced 1O2 production with 660 nm light (1 hr = 58.7 J/cm2)
using the Singlet Oxygen Sensor Green assay. […]

A short description of data set [5]: Stability of compounds in human liver microsomes. The settings on record: for Remaining, % (T=60min): human, liver microsomes. (Liver microsomes are a subcellular fraction often used to study metabolism.)
A further data set concerns the target human isoform of CYP51. Details: method as in PMID 23826084. Conditions: cited from earlier work.
A further data set concerns CYP3A4. Details: method as in PMID 23018626. The settings on record: cited from earlier work.
The next data set concerns the target fungal CYP51. The settings on record: read-out: Kd fungal CYP51; cited from earlier work.
Data set [6] can be described thus: Stability of compounds in rat liver microsomes.
The nature of data set [7]: Stability of compounds in mouse liver microsomes.
The conditions of data set [8]: human, microsomes.
For data set [9] the following is noted: rat, microsomes.
For data set [10] the following is noted: mouse, microsomes.
On the set-up of data set [11]: method as in Scifinder. Conditions: ref Scifinder; cited from earlier work.

For the compound `CC(C)(C#N)c1cc(Cn2cncn2)cc(C(C)(C)C#N)c1` [Anastrozole, anastrozole], the “selectivity for CYP19A1 over liver CYPs” value with CYP19A1 [1] is given as “at least 500 fold”.

On to `O=C([O-])c1cc2[n+](c3ccccc13)[Ru-4]13([n+]4ccccc4)([n+]4ccccc4-c4cccc([n+]41)-c1cccc[n+]13)[n+]1c-2cc(C(=O)[O-])c2ccccc21` [Compound 8, [Ru(tpy)(bca)(pyridine)]], for which, on CYP19A1 [2], the “impact on any CYP (CYP19A1)” value is recorded as “no impact”. In addition, in the data set with HEK293 T-Rex cell line, the “effect on cell health” value is recorded as “no effect”. The “degradation at pH = 1” value in [3] (5 % DMSO / di-H2O, acidic condition (pH = 1), 37 °C, 72 hours) is on record as “less than 7%”. Further, the “degradation over 72 h” value in data set [3] (Supplementary Fig. 17) is listed as less than 7%. Moreover, the “irradiation-induced 1O2 production (Singlet Oxygen Sensor Green signal, relative)” value in data set [4] is 1.034 and 0.94 and 1.135.

Consider `O=C(O)Cc1ccccc1Nc1c(Cl)cccc1Cl` [Diclofenac, reference compound], for which, in data set [5], the “Remaining, % (T=60min)” value is recorded as 0.0%.

Take `CCCCCCOC(C)c1c(C)c2cc3nc(c4c5[nH]c(cc6nc(cc1[nH]2)C(C)=C6CC)c(C)c5C(=O)C4)[C@@H](CCC(=O)O)[C@@H]3C` (some centres unmarked) [HPPH, reference compound]: the “irradiation-induced 1O2 production (Singlet Oxygen Sensor Green signal, relative)” value in data set [4] is 4.8266 and 4.787 and 4.883.

On to `CC(=O)N1CCN(c2ccc(OCC3COC(Cn4ccnc4)(c4ccc(Cl)cc4Cl)O3)cc2)CC1` (centres unmarked) [Ketoconazole, ketoconazole], for which the figures for the Kd at human isoform of CYP51 and at fungal CYP51 were 42 nM and 27 nM, respectively. Moreover, the half-inhibitory concentration (IC50) (commonly the concentration at which inhibition is half-maximal) in the data set on CYP3A4 was […].

Turning to `[Ru+2].c1ccc(-c2ccccn2)nc1.c1ccc(-c2ccccn2)nc1.c1ccc(-c2ccccn2)nc1` [Ru(bpy)3, reference compound], the “irradiation-induced 1O2 production (Singlet Oxygen Sensor Green signal, relative)” value in data set [4] was 4.994 and 4.917 and 5.133.

With `C[C@]12CC[C@H]3[C@@H](CCC4=CC(=O)CC[C@@]43C)[C@@H]1CC[C@@H]2O` [Testosterone, reference compound], the “Remaining, % (NCF=60min)” value in data set [6] (rat liver microsomes, no co-factor (no NADPH)) came to 86.5%; in data set [5] (human liver microsomes, no co-factor (no NADPH)), 82.5%; in [7] (mouse liver microsomes, no co-factor (no NADPH)), 91.3%. For the same compound, the “Remaining, % (T=60min)” value in [6] (rat, liver microsomes) is 0.8%; in [5] it was 3.6%; in [7] (mouse, liver microsomes) it was 2.3%.

In the case of `COc1ccc(/C=C/c2cc[n+]([Os-4]34([Cl])([n+]5ccccc5-c5cccc[n+]53)[n+]3ccccc3-c3cccc[n+]34)cn2)c(OC)c1.[Cl-]` [[Os(bpy)2(2)Cl]Cl], the “CLint(mic)” value is less than 9.6 µL/min/mg in data set [8], 16.9 µL/min/mg in data set [9] and less than 9.6 µL/min/mg in [10]. The T1/2 is greater than 2.42 h in data set [8], 1.36 h in [9] and greater than 2.42 h in data set [10]. For the same compound, the figures for the “Remaining, % (NCF=60min)” value in [8] (1 h), in data set [9] (1 h) and in data set [10] (1 h) were 107%, 91.8% and 75.9%, respectively. For the same compound, the “Remaining, % (T=60min)” value in [8] (1 h) came to 78.4%; in data set [9] (1 h) it was 56.5%; in [10] (1 h), 71.8%.

Turning to `Cc1ccncc1` [methyl pyridine], in [11], the pKa (in general, the negative logarithm of the acid dissociation constant) is recorded as 5.9.

As for `Cc1ccncn1` [methyl pyrimidine], the pKa in [11] is 2.0.

Values taken from article PMC9233675, “Ru(II) photocages enable precise control over enzyme activity with red light” (Nature Communications, 2022).
